Results: paper PMC9714824, “Hexapeptides from mammalian inhibitory hormone hunt activate and inactivate nematode reproduction” (PLOS ONE, 2022)

Assays:
Caenorhabditis elegans = conditions: 1μM per day into the aqueous medium; cited from earlier work
From the text: As a control compound there was synthesized EPL030, having the aa sequence KLKMNGKNIEPVFT. This is a scrambling of EPL001’s sequence, based on cards drawn at random by one of us (CRM). […] The figures for fecundity were EPL001 +43 ... || Returning to EPL030, the scrambled-sequence EPL001 comparator, this has engendered perplexity by displaying the same activity as EPL001 across multiple mammalian systems. Thus, EPL030 suppressed human prostate cancer cells in vitro more than EPL001 in two laboratories and the proliferation of rat bone marrow cells in vitro in a third.

[1] = system: MCF-7 human breast adenocarcinoma xenografts; assay: MCF-7 xenograft precursor study (first study); assay type: in vivo, nude mice; conditions: for Max % weight loss: 100mg/kg/day i.p.; for Median RTV2: 100mg/kg/day i.p. on 15 days between days 0 and 20, n=8
Description: The MCF-7 human breast adenocarcinoma model was selected for two xenograft studies. An oestrogen pellet was implanted subcutaneously in the dorsal area 24 hours prior to 2-3mm^3 fragments of MCF-7 tumour taken from donor tumours transplanted subcutaneously in the abdominal flanks of the efficacy study mice. Once tumour volumes reached approximately 32 mm^3 (as measured by calipers, designated treatment day 0) mice were randomised into treatment groups (n=8).
In the first study four groups were used as follows: EPL001 or EPL030 at 100mg/kg/day administered i.p. on days 0, 1, 4, 5, 6, 7, 8, 11, 12, 13, 14, 15, 18, 19 and 20, plus a mouse anti-EPL001 monoclonal antibody or a control antibody directed at mouse haemocytes at 4mg/kg/day administered i.p. on days 0, 1, 2, 3, 4, 7, 8, 9, 10, 11, 14, 15, 16, 17 and 18 .
Tumour volume, using calipers, and animal body weight were recorded throughout the experiment and normalised to the respective volume on the initial day of treatment (day 0). Mann-Whitney U tests were conducted to determine the statistical significance of any differences in growth rate (based on tumour volume doubling time) between control and treated groups.

[2] = Toxicity study in immunodeficient nude mice; assay type: in vivo, female Balb/c immunodeficient nude mice; conditions: for Toxicity: in words; for Maximum weight loss compared to Day 0: groups of 2 mice
Description: For toxicity studies female Balb/c immunodeficient nude mice were used (B & K Universal, Hull, UK), aged 6–8 weeks old. They were housed in cages in isolation cabinets in an air-conditioned room with regular alternating cycles of light and darkness and received Teklad 2018 (Envigo) diet and water ad libitum. EPL001 and EPL030 in PBS at pH7.4 were administered to groups of 2 mice intraperitoneally (i.p.) daily on Days 0–4 at 500 mg/kg/dose and then 1000 mg/kg/dose. Following treatment, body weight was measured on a regular basis, and behaviour and general appearance monitored visually to assess for deleterious effects (e.g. dehydration, impaired mobility, hunched posture, low body temperature, ulceration and significant body weight loss), with any effects during the study recorded. […] If no deleterious effects were seen after at least 16 days of study, then the animals were sacrificed, with the dose considered non-toxic.
For toxicity studies female Balb/c immunodeficient nude mice were used (B & K Universal, Hull, UK), aged 6-8 weeks old. They were housed in cages in isolation cabinets in an air-conditioned room with regular alternating cycles of light and darkness and received Teklad 2018 (Envigo) diet and water ad libitum. EPL001 and EPL030 in PBS at pH7.4 were administered to groups of 2 mice intraperitoneally (i.p.) daily on days 0-4 at 500mg/kg/dose and then 1000mg/kg/dose. Following treatment, body weight was measured on a regular basis, and behaviour and general appearance monitored visually to assess for deleterious effects (e.g. dehydration, impaired mobility, hunched posture, low body temperature, ulceration and significant body weight loss), with any effects during the study recorded.

rat bone marrow cells = assay: Bone marrow cell assay, time-lapse cell counts over 24h; assay type: cell-based; conditions: EPL001, EPL030 at 6μM, EPL120 at 5μM final concentration, in words (Fig 6)
Description: The method has been described previously at length. Bone marrow cells, consisting of various cell types including mesenchymal stem cells and fibroblasts, were cultured from adult male rats (Rattus norvegicus, SD strain). These cells were passaged from a growing primary stock in a T75 tissue culture flask (Sarstedt) into a 48 well tissue culture plate (IWAKI), with a cell density of 1 x 10^5/ml. The cell culture media, henceforth referred to as ‘supplemented a-MEMS,’ comprised α-MEMS media supplemented with 10% FCS and 1% penicillin/streptomycin (all Life Technologies, Carlsbad, CA, US). On the day of peptide addition to the cells, the supplemented α-MEMS was gently removed and fresh supplemented α-MEMS added, with 10% test material by volume to achieve micromolar concentrations, untreated controls receiving just fresh supplemented α-MEMS. (For dose levels see legends in respective result figures) All samples were filter sterilised using a Millex-GV […] syringe filter unit (Merck, Kenilworth, NJ, USA). The cells were imaged for 24 h using an incubated Zeiss Axiovert 135M microscope with a Prior Proscan II motorised stage, at 37 °C with a 5% CO2 in air feed. Each well of the 48-well tissue culture plate was then imaged for 24h every 5 min using Metamorph software (MDS Analytical Technologies, Wokingham, UK), with each well having four fields of view. The viability and cell numbers were reviewed by analysing the images captured over the 24h period and cell counts were taken at selected time points using the Metamorph software.
Fig 6 Bone marrow cells in culture exposed to long peptides. Cells were counted over 24h after exposure to the 14mer peptide EPL001 or its scrambled-sequence control EPL030 at 6μM final concentration or to the 20mer EPL120 at 5μM final concentration, compared to peptide-untreated controls.
Fig 7 Bone marrow cells in culture exposed to hexapeptides. Cells were counted over 24h after exposure to either EPL016 (= MKPLTG, the ‘Front 6’ of the 14mer EPL001) or EPL036 (= IEPVFT, the ‘Back 6’ of EPL030, the scrambled-sequence control of EPL001) at 1μM final concentration, compared to peptide-untreated controls.

[3] = 500mg/kg/day ip Days 0 to 4, on Day 2
[4] = 1000mg/kg/day ip Days 0 to 4, EPL030 on Day 3, EPL001 on Day 1

Sequence	Fecundity (number of eggs), cumulative totals vs untreated controls (Caenorhabditis elegans)	Lifespan, average vs untreated controls (Caenorhabditis elegans)	Max % weight loss [1]	Median RTV2 [1]	Toxicity ([2]; 500mg/kg/day ip Days 0 to 4)	Maximum weight loss compared to Day 0 [2, 3]	Maximum weight loss compared to Day 0 [2, 4]	Toxicity ([2]; 1000mg/kg/day ip Days 0 to 4)	Effect on bone marrow cells in culture (rat bone marrow cells)	Growth delay ([1]; EPL001 versus EPL030)
KLKMNGKNIEPVFT [EPL030, …, scrambled EPL001 control]	−64%	+23%	1.2%	7.3 days	No discernible toxicity	4.0%	7.0%	no discernible signs of toxicity	pro-apoptotic	
MKPLTGKVKEFNNI [EPL001, 14mer master test peptide …; ovine provenance]	+43%	+18%	3.6%	7.7 days	No discernible toxicity	5.0%	3.5%	no discernible signs of toxicity	antiproliferative	0.4 days
